Test system: mt-Keima HEK 293T cells
Assay: In vitro activation of mitophagy in mt-Keima 293T cells
Format: cell-based, human
Details: 10 μM, 6 hours
Procedure: The specific method was as follows:
293T cells were cultured and passaged in the normal way, and inoculated in a 24-well plate, with 0.5 mL inoculated in each well. The cell density was 5×10^4 cells/mL, and a total of 2.5×10^4 cells were inoculated. Before inoculation, the cells in the centrifuge tube were pipetted evenly to ensure that the cell density at the beginning and at the end was consistent. After standing for 5-10 minutes, the plate was gently placed in the incubator. After overnight incubation, the original complete medium was removed, and 0.3 mL of a complete medium solution containing 1.5×10^5 TU lentiviruses was added to each well. After incubation at 37° C. for 8 hours, 200 μL of the complete medium was added to each well. After 24 hours of transfection, the medium was replaced until the cell density reached 80-90%, and the cells were digested and passaged a T25 flask. […] The successfully transfected cells were screened using a complete medium containing 0.5 μg/mL of a puromycin hydrochloride solution, and maintained with 0.25 μg/mL of the solution.
The confocal dishes were inoculated with 1 mL per dish, with a cell density of 2×10^5 cells/mL. After standing for 5-10 minutes, the dishes were gently placed in the incubator. When the cells grew to 30-40%, the drug was administered. After treating mt-Keima cells with 10 μM different iridoid monomer ingredients from the male flowers of Eucommia ulmoides Oliver or 10 μM CCCP for 6 hours, the medium was replaced with a fresh complete medium, and then live-cell confocal observation was performed directly. Confocal parameters: the excitation wavelengths were 440 nm and 596 nm each, and the emission wavelength was 620 nm, observed by a 40× water immersion objective.

Molecule	mitophagy activation	comparison of the average fluorescence density ratio (same concentration)
COC(=O)C1=CO[C@@H](O[C@@H]2O[C@H](CO)[C@@H](O)[C@H](O)[C@H]2O)[C@@H]2C(CO)=CC[C@H]12 [geniposide]	have mitophagy-activating activity	
CC(=O)OCC1=C[C@@H]2OC(=O)C3=CO[C@@H](O[C@@H]4O[C@H](CO)[C@@H](O)[C@H](O)[C@H]4O)[C@H]1[C@@H]32 [asperuloside]	had mitophagy-activating activity	better than that of the other three monomer ingredients
OCC1=C[C@@H](O)[C@@H]2C=CO[C@@H](O[C@@H]3O[C@H](CO)[C@@H](O)[C@H](O)[C@H]3O)[C@H]12 [aucubin]	have mitophagy-activating activity	
carbonyl cyanide ester-3-chlorophenylhydrazone [CCCP]	significantly induced the occurrence of mitophagy	
O=C(O)C1=CO[C@@H](O[C@@H]2O[C@H](CO)[C@@H](O)[C@H](O)[C@H]2O)[C@@H]2C(CO)=CC[C@H]12 [geniposidic acid]	have mitophagy-activating activity	

Reference: patent publication US20260021152A1, “USE OF MALE FLOWER EXTRACT OF EUCOMMIA ULMOIDES OLIVER IN PREPARATION OF FOOD OR MEDICAMENT FOR RESISTING MUSCLE AGING” (ZHEJIANG UNIVERSITY, priority 2022, published 2026)
